# Results taken from patent US9453031B2, “Chemical entities” (Fundación Centro Nacional de Investigaciones Oncológicas …, priority 2013, dated 2016).
# Target: DNA-PK (Homo sapiens (Human), UniProt P78527)
# Assay: DNAPK activity assay (ADP Hunter Plus)
# Assay type: biochemical
# Settings: 75 μM ATP
# Description: The kinase activity was measured by using the commercial ADP Hunter™ Plus assay available from DiscoveRx (#90-0083), which is a homogeneous assay to measure the accumulation of ADP, a universal product of kinase activity. The enzyme, DNA-PK was purchased from Promega (#V5811). The assay was done following the manufacturer recommendations with slight modifications: Mainly the kinase buffer was replace by 15 mM HEPES, pH 7.5, 10 mM MgCl2, 20 mM NaCl, 1 mM EGTA, 0.1 mg/mL BGG, 0.02% Tween 20. The DNA-PK was assayed in a titration experiment to determine the optimal protein concentration for the inhibition assay. To calculate the […] of the Compounds, serial 1:3 dilutions of the compounds were added to the enzyme at a fixed concentration (2 U/μL). The enzyme was preincubated with the inhibitor and 200 μM DNA substrate and then ATP was added to a final 75 μM concentration. Reaction was carried out for 1 hour at 37° C. Reagent A and B were sequentially added to the wells and plates were incubated for 30 min at RT. Fluorescence counts were read in a EnVision instrument (Perkin Elmer) with the recommended settings (550 and 590 nm as excitation and emission wavelengths, respectively).
row,Compound,IC50 [nM]
1,COc1cc(-c2nc3c(c(C4(S(C)(=O)=O)CCOCC4)n2)OC[C@@H]2COCCN32)c2cc[nH]c2c1 [Example 29],25000
2,COc1cc(-c2nc3c(c(C4(S(C)(=O)=O)CC4)n2)OC[C@@H]2COCCN32)c2cc[nH]c2c1 [Example 75],1830
3,CS(=O)(=O)C1(c2nc(-c3cc(C(F)(F)F)cc4[nH]ccc34)nc3c2OC[C@@H]2COCCN32)CCOCC1 [Example 105],10000
4,CS(=O)(=O)C1(c2nc(-c3cccc4[nH]ccc34)nc3c2OCC[C@H]2COCCN32)CCOCC1 [Example 23],6370
5,CC(C)(O)c1nc(-c2cccc3[nH]ccc23)nc2c1OC[C@@H]1COCCN21 [Example 44],3060
6,CNc1nc2cc(F)ccc2n1-c1nc2c(c(C(C)(C)S(C)(=O)=O)n1)OC[C@@H]1COCCN21 [Example 82],10000
7,CC(C)(c1nc(-c2ccc(F)c3[nH]ccc23)nc2c1OC[C@@H]1COCCN21)S(C)(=O)=O [Example 102],100
8,CS(=O)(=O)C1(c2nc(-c3cc(F)cc4[nH]ccc34)nc3c2OC[C@@H]2COCCN32)CCOCC1 [Example 28],25000

# Target: PI3K (p110α/p85α) (Homo sapiens (Human), UniProt P42336)
# Assay: PI3K alpha activity assay (ADP Hunter Plus)
# Assay type: biochemical
# Settings: 50 μM ATP, 30 μM PIP2; read-out: PI3Kα IC50
# Description: The kinase activity was measured by using the commercial ADP Hunter™ Plus assay available from DiscoveRx (#33-016), which is a homogeneous assay to measure the accumulation of ADP, a universal product of kinase activity. […] The reaction was carried out for 1 hour at 25° C. Reagent A and B were sequentially added to the wells and plates were incubated for 30 min at 37° C. Fluorescence counts were read in a Victor instrument (Perkin Elmer) with the recommended settings (544 and 580 nm as excitation and emission wavelengths, respectively).
# PI3K (p110α/p85α), sequence (P42336 whole entry): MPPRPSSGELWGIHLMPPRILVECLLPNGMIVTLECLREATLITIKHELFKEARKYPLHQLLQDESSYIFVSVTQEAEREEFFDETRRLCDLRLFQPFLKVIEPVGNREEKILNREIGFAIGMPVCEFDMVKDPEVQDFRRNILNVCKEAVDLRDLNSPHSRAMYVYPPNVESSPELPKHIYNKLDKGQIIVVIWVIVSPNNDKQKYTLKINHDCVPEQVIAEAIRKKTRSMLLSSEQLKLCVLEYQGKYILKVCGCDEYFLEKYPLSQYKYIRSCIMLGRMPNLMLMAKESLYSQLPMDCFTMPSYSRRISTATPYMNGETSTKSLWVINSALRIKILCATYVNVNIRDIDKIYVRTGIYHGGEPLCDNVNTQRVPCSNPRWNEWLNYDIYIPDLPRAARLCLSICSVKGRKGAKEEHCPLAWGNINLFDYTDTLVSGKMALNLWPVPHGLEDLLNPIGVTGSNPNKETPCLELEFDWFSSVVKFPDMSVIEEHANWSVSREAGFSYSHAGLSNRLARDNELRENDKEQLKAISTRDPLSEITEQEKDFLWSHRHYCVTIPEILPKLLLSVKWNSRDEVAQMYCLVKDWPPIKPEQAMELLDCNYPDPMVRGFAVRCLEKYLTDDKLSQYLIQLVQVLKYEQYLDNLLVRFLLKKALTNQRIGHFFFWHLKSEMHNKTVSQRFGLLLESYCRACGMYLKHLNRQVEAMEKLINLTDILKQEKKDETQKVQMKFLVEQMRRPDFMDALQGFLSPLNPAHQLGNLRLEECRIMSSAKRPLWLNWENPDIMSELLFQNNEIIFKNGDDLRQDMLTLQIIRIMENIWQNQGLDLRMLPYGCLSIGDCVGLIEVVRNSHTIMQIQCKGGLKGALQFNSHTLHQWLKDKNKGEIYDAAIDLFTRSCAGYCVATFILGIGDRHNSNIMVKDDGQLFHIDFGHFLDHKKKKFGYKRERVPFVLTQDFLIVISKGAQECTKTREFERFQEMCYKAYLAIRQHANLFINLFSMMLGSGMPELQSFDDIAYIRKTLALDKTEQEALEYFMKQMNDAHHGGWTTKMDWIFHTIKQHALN
# PI3K (p110α/p85α), sequence (P27986 whole entry partner): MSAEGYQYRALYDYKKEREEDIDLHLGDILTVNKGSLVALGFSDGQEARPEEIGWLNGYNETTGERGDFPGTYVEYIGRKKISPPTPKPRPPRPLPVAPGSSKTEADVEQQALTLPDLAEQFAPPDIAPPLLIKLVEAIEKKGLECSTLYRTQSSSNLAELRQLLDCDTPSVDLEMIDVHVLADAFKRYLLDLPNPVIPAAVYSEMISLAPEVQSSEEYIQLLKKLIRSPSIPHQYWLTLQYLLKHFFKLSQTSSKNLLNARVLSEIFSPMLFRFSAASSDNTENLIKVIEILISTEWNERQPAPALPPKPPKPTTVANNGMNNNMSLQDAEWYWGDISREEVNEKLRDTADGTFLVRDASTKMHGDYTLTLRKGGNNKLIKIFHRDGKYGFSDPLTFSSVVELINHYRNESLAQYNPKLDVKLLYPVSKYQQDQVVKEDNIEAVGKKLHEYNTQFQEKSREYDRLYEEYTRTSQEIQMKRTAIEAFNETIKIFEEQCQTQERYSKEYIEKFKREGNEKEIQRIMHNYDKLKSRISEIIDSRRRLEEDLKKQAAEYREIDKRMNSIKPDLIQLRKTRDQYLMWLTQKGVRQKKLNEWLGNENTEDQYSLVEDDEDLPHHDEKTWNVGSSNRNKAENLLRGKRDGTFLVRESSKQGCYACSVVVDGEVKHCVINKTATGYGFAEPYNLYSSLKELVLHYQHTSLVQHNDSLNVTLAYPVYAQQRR
row,Compound,IC50 [nM]
1,COc1cc(-c2nc3c(c(C4(S(C)(=O)=O)CCOCC4)n2)OC[C@@H]2COCCN32)c2cc[nH]c2c1 [Example 29],3800
2,COc1cc(-c2nc3c(c(C4(S(C)(=O)=O)CC4)n2)OC[C@@H]2COCCN32)c2cc[nH]c2c1 [Example 75],2520
3,CS(=O)(=O)C1(c2nc(-c3cc(C(F)(F)F)cc4[nH]ccc34)nc3c2OC[C@@H]2COCCN32)CCOCC1 [Example 105],28900
4,CS(=O)(=O)C1(c2nc(-c3cccc4[nH]ccc34)nc3c2OCC[C@H]2COCCN32)CCOCC1 [Example 23],50000
5,CC(C)(O)c1nc(-c2cccc3[nH]ccc23)nc2c1OC[C@@H]1COCCN21 [Example 44],1180
6,CNc1nc2cc(F)ccc2n1-c1nc2c(c(C(C)(C)S(C)(=O)=O)n1)OC[C@@H]1COCCN21 [Example 82],5600
7,CC(C)(c1nc(-c2ccc(F)c3[nH]ccc23)nc2c1OC[C@@H]1COCCN21)S(C)(=O)=O [Example 102],50000
8,CS(=O)(=O)C1(c2nc(-c3cc(F)cc4[nH]ccc34)nc3c2OC[C@@H]2COCCN32)CCOCC1 [Example 28],4700

# Target: mTOR (Homo sapiens (Human), UniProt P42345)
# Assay: mTOR activity assay (LanthaScreen)
# Assay type: biochemical
# Settings: not given
# Description: The enzymatic mTOR activity was measured using a LanthaScreen™ kinase activity assay (Invitrogen). The enzyme was purchased from Invitrogen (PV4754), as well as the GFP-labelled substrate (4EBP1-GFP; PV4759) and the Tb-antip4EBP1(pThr46) antibody (PV4757). The assay was performed in 50 Mm HEPES buffer, pH 7.5, containing 1.5 mM MnCl2, 10 mM MgCl2, 1 mM EGTA, 2.5 mM DTT and 0.01% Tween-20. The concentration of the assay components were the following: 0.24 nM mTOR kinase, 400 nM 4EBP1-GFP, […] and serial dilutions of the compound (inhibitor) to be evaluated. After 1 h incubation at room temperature, 20 mM EDTA was used to stop the reaction and terbium-labelled antibody (4 nM) added to detect phosphorylated product. The antibody associates with the phosphorylated product resulting in an increased TR-FRET value. The TR-FRET value (a dimensionless number) was calculated as the ratio of the acceptor signal (GFP, emission at 520 nm) to the donor signal (terbium, emission at 495 nm).
row,Compound,IC50 [nM]
1,COc1cc(-c2nc3c(c(C4(S(C)(=O)=O)CCOCC4)n2)OC[C@@H]2COCCN32)c2cc[nH]c2c1 [Example 29],435
2,COc1cc(-c2nc3c(c(C4(S(C)(=O)=O)CC4)n2)OC[C@@H]2COCCN32)c2cc[nH]c2c1 [Example 75],93
3,CS(=O)(=O)C1(c2nc(-c3cc(C(F)(F)F)cc4[nH]ccc34)nc3c2OC[C@@H]2COCCN32)CCOCC1 [Example 105],1990
4,CS(=O)(=O)C1(c2nc(-c3cccc4[nH]ccc34)nc3c2OCC[C@H]2COCCN32)CCOCC1 [Example 23],10000
5,CC(C)(O)c1nc(-c2cccc3[nH]ccc23)nc2c1OC[C@@H]1COCCN21 [Example 44],44
6,CNc1nc2cc(F)ccc2n1-c1nc2c(c(C(C)(C)S(C)(=O)=O)n1)OC[C@@H]1COCCN21 [Example 82],1590
7,CC(C)(c1nc(-c2ccc(F)c3[nH]ccc23)nc2c1OC[C@@H]1COCCN21)S(C)(=O)=O [Example 102],1820
8,CS(=O)(=O)C1(c2nc(-c3cc(F)cc4[nH]ccc34)nc3c2OC[C@@H]2COCCN32)CCOCC1 [Example 28],785

# Target: ATR (Homo sapiens (Human), UniProt Q13535)
# Assay: Cellular ATR inhibition, western blot of CHK1(S345) phosphorylation in hydroxyurea treated cells
# Assay type: cell-based
# Settings: HT29 cells, hydroxyurea 2.5 mM
# Description: In addition to the selective system described above, Example compounds presented here were screened for their ability to inhibit intracellular ATR using a western blot assay to detect phosphorylation of the ATR substrate CHK1(S345) in hydroxyurea treated cells. HT29 cells are plated at 500,000 cells per well in 6-well plates in RPMI media (Sigma R6504) supplemented with 10% foetal bovine serum (Sigma F7524), Penicillin/Streptomycin solution diluted 1:100 (Gibco 15070-063), and fungizone (Gibco, 15290-018), and allowed to adhere overnight at 37° C. in 5% CO2. Compounds are then added to the cell media from a final concentration of 10 μM in 3-fold serial dilutions and the cells are incubated at 37° C. in 5% CO2. After 15 min, hydroxyurea (Sigma H8627) is added to a final concentration of 2.5 mM. After 30 min of treatment with hydroxyurea, the cells are washed in PBS, lysed adding 50 μl of in protein lysis buffer (50 mM Tris pH 7.5, 150 mM NaCl, 1% IGEPAL CO-630 (Sigma, Ref. 542334-100G-A), Phospho Stop (Roche, Ref. 04906837001) and Complete Mini EDTA free (Roche, Ref. 11836170001)). The protein content of the lysates was determined by the modified method of Bradford (Sigma, Ref. B6916). The proteins were resolved by SDS-PAGE and transferred to nitrocellulose membrane (VWR International Eurolab, Ref. 732-4007). The membranes were incubated overnight at 4° C. with antibodies specific for total CHK1 (Santa Cruz Biotechnology, sc-8404), phosphoserine-345 CHK1 (Cell Signaling Technology #2348) they were washed and then incubated with IRDye800 conjugated anti-mouse (Pierce/Cultek, 35521) and Alexa Fluor 680 goat anti-rabbit IgG secondary antibodies (Invitrogen, A21076). The bands were visualized and quantified using an Odyssey infrared imaging system (Li-Cor Biosciences). The percentage of phosphorylated CHK1 vs total CHK1 in cells treated with hydroxyurea was taken as hundred percent of phosphorylation. The percentage of CHK1 phosphorylation is finally plotted against concentration for each compound and EC50s for intracellular ATR inhibition are calculated using ActivityBase from IDBS.
# ATR, sequence (Q13535 whole entry): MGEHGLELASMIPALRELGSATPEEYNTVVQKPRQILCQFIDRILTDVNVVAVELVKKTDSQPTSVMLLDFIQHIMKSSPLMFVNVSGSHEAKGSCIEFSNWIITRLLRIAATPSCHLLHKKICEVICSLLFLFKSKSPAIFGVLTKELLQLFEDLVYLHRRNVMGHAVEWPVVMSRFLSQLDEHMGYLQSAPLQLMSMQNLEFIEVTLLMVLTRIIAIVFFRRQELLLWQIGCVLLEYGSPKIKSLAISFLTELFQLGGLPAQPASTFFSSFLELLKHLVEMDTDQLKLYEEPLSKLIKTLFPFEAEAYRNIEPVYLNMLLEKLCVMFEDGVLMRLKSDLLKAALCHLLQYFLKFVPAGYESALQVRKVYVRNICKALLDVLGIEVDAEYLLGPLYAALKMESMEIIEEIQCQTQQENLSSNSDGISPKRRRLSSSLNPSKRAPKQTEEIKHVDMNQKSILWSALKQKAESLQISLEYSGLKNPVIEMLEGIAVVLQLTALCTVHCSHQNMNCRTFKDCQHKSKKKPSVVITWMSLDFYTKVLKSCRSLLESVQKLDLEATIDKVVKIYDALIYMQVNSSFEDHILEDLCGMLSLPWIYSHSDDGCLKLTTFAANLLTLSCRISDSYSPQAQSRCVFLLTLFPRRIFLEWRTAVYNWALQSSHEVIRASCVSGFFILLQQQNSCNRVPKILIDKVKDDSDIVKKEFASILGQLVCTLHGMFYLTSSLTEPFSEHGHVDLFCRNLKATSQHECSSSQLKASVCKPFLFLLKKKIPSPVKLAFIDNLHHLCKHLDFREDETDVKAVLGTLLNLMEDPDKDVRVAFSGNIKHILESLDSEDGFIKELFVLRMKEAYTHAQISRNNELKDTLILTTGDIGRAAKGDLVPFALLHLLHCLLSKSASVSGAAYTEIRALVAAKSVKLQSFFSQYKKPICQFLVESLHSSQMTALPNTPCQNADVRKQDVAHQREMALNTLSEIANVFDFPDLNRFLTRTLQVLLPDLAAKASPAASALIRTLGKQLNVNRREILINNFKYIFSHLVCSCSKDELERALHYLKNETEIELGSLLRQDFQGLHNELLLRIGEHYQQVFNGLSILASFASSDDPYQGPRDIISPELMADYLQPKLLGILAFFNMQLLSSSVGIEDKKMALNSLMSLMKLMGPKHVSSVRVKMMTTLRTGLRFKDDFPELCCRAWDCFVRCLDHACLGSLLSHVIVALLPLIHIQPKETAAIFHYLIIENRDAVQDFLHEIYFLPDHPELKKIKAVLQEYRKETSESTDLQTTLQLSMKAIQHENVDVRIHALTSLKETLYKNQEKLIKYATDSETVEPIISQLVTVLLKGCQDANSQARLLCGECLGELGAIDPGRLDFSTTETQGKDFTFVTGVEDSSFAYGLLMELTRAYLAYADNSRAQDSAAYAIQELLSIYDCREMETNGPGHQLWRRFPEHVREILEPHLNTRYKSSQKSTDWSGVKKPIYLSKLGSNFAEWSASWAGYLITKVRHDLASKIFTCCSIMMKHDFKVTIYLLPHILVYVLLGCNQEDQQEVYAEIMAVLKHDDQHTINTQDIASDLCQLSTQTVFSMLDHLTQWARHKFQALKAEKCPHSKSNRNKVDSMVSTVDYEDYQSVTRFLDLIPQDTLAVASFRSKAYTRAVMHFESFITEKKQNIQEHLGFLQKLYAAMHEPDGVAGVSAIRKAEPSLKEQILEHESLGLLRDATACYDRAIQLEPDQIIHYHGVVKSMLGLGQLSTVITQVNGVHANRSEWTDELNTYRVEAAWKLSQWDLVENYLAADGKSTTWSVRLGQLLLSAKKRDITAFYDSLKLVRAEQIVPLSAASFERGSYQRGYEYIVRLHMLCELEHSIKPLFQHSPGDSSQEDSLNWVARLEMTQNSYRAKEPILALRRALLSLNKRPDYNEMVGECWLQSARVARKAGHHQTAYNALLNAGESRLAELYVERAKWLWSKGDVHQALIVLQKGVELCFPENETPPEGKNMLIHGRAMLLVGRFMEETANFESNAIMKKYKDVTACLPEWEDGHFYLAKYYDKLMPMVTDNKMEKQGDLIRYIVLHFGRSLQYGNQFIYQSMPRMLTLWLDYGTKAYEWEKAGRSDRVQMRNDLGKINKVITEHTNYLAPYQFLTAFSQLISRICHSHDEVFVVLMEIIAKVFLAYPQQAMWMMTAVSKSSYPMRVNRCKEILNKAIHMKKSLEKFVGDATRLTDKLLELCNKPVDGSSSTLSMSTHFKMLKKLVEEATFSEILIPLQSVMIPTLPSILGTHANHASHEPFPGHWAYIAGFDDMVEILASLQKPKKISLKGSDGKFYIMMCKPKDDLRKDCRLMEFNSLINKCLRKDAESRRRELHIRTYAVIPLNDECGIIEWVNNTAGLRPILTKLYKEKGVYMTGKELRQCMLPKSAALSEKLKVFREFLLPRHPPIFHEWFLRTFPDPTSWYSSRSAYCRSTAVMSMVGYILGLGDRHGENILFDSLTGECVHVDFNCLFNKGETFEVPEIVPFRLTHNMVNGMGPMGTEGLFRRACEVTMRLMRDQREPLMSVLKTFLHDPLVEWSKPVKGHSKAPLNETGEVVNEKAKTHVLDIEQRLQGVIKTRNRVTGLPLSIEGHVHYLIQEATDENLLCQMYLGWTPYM
row,Compound,EC50 [nM]
1,COc1cc(-c2nc3c(c(C4(S(C)(=O)=O)CCOCC4)n2)OC[C@@H]2COCCN32)c2cc[nH]c2c1 [Example 29],< 100
2,COc1cc(-c2nc3c(c(C4(S(C)(=O)=O)CC4)n2)OC[C@@H]2COCCN32)c2cc[nH]c2c1 [Example 75],100 to 1000
3,CS(=O)(=O)C1(c2nc(-c3cc(C(F)(F)F)cc4[nH]ccc34)nc3c2OC[C@@H]2COCCN32)CCOCC1 [Example 105],100 to 1000
4,CS(=O)(=O)C1(c2nc(-c3cccc4[nH]ccc34)nc3c2OCC[C@H]2COCCN32)CCOCC1 [Example 23],100 to 1000
5,CC(C)(O)c1nc(-c2cccc3[nH]ccc23)nc2c1OC[C@@H]1COCCN21 [Example 44],100 to 1000
6,CC(C)(c1nc(-c2ccc(F)c3[nH]ccc23)nc2c1OC[C@@H]1COCCN21)S(C)(=O)=O [Example 102],> 1000
7,CS(=O)(=O)C1(c2nc(-c3cc(F)cc4[nH]ccc34)nc3c2OC[C@@H]2COCCN32)CCOCC1 [Example 28],< 100

# Same assay, conditions: HT29 cells, hydroxyurea […]
row,Compound,EC50 [nM]
1,CNc1nc2cc(F)ccc2n1-c1nc2c(c(C(C)(C)S(C)(=O)=O)n1)OC[C@@H]1COCCN21 [Example 82],100 to 1000
